Test results: article PMC4700278, “Molecular and Biochemical Analysis of the Estrogenic and Proliferative Properties of Vitamin E Compounds” (Frontiers in Oncology, 2016)

Experiments:
[1] = test system: ER-dependent transcription in MELN cells; assay: ERE-luciferase reporter assay in MELN cells (MCF-7 stably transfected with ERE-β-globin-tk-Luc); assay type: cell-based, human; conditions: for stimulation of luciferase expression (ER-dependent transcription): 500 μM (tocols 10 to 500 μM)
Excerpt: MELN cells were established by transfecting ER(+) MCF-7 cells with the ERE-β-globin-tk-Luc-SV-Neo plasmid ([36]). HELN cells were generated by transfection of ER(−) HeLa cells with this plasmid. The HELN-ERα, HELN-ERβ, HELN-ΔAB-ERα, and HELN-ΔAB-ERβ cell lines then underwent a second transfection with the corresponding pSG5-puro plasmids (pSG5-ERα-puro, pSG5-ERβ-puro, pSG5-ΔAB-ERα-puro, and pSG5-ΔAB-ERβ-puro, respectively) and expressed wild-type or mutated ERα or ERβ ([39], [40]). […] Comparison of the activities toward hERα and hERβ with the truncated ΔAB-ERα and ΔAB-ERβ provides a powerful model to identify partial ER agonists (requiring ligand-independent AF-1 to induce maximal ER activation). […] Cells were grown routinely in DMEM growth medium supplemented with 5% FBS (Gibco BRL, Life Technologies, Cergy pontoise, France). Cells were incubated at 37°C in a humidified 5% CO2 incubator. For experiments, cells were grown for 5 days in phenol red-free medium, containing 6% dextran-coated charcoal-treated FCS (DCC-FCS) with penicillin–streptomycin. Medium was changed after 2 days. On day 5, cells were treated or not with the compounds, which were dissolved in ethanol. For each condition, 15 × 10^3 cells were seeded per well in 12-well plates and treated, as described above, for 8 h in a final volume of 0.5 ml. At the end of the treatment, cells were washed with PBS and lysed in 150 μl lysis buffer (Promega, Charbonnières, France). Luciferase activity was measured using the luciferase assay reagent (Promega), according to the manufacturer’s instructions. Protein concentrations were measured using the Bradford technique ([41]) to normalize the luciferase activity data. For each condition, average luciferase activity was calculated from the data of three independent wells.
Figure 3 Measurement of estrogenicity of tocols in vitro. (A) Dose–response curve of the effect of tocols on MCF-7 cells stably transfected with the ERE-β-globin-tk-Luc plasmid (MELN cells). […] Data shown are the mean values ± SEM from three independent experiments. […] MCF-7 extracts were analyzed for the presence of ERα by western blotting using GAPDH as a control. […] The western blot shown is representative of three independent experiments. The ratio of ERα to GAPDH levels in each experiment was determined densitometrically and normalized to control value (taken to be 1). (D) Effect of δ-tocols on estrogen response element-dependent luciferase activity in HELN cells, which are HELA cells transfected with either fully functional ERα or ERβ or their mutated versions containing a deletion the AB domain (ΔAB). […] Data shown are the mean values ± SEM from three independent experiments. […] Cells were treated with 500 μM δ-tocols in the presence or in the absence of ICI. The relative expression of TGFα, PR, and Ps2 (TFF1) after 16 h was analyzed by quantitative RT-PCR. Data shown are the mean values ± SEM from three independent experiments.

T47D (ER(+)) cells = assay: Cell proliferation assay (sulforhodamine B); assay type: cell-based, human
Protocol: (§1) MCF-7 (ER(+)), T47D (ER(+)), and MDA-MB-231 (ER(−)) cell lines were from ATCC. Cell lines were maintained at 37°C in a humidified incubator in a 5% CO2-enriched atmosphere in T-75 flasks. […] Cells were grown for 24 h before treatment in phenol red-free medium containing 5% DCC-FCS. Cells were seeded into 96-well plates at 2000 cells/well. Treatment media (150 μl/well) was added on the following day and replaced at 48-h intervals until the end of the experiment. Cell density was measured via the sulforhodamine B method ([43]) after 0, 2, 4, 6, and 8 days. The absorbance of SRB was measured directly at 490 nm in the 96-well plates using a multiskan® multisoft reader from Labsystem.

MCF-7 (ER(+)) cells = assay: Cell proliferation assay (sulforhodamine B); assay type: cell-based, human
Protocol: as §1

MDA-MB-231 (ER(−)) cells = assay: Cell proliferation assay (sulforhodamine B); assay type: cell-based, human; conditions: 500 μM δ-TP or δ-TT; 30 μM lovastatin; 6-day period
Protocol: MCF-7 (ER(+)), T47D (ER(+)), and MDA-MB-231 (ER(−)) cell lines were from ATCC. Cell lines were maintained at 37°C in a humidified incubator in a 5% CO2-enriched atmosphere in T-75 flasks. MCF-7, T47D, and MDA-MB-231 cells were grown routinely in phenol red RPMI 1640 medium supplemented with 5% FBS (Gibco BRL, Life Technologies, Cergy Pontoise, France) and with penicillin–streptomycin. Cells were grown for 24 h before treatment in phenol red-free medium containing 5% DCC-FCS. Cells were seeded into 96-well plates at 2000 cells/well. Treatment media (150 μl/well) was added on the following day and replaced at 48-h intervals until the end of the experiment. Cell density was measured via the sulforhodamine B method ([43]) after 0, 2, 4, 6, and 8 days. The absorbance of SRB was measured directly at 490 nm in the 96-well plates using a multiskan® multisoft reader from Labsystem.
Figure 4 Effect of tocol on ER(+) and ER(−) BC cell proliferation and HMG-CoA reductase activity. (A) Effect of δ-tocols on estrogen and non-estrogen-regulated growth of MCF-7, T47D, and MDA-MB-231 cells. […] Cells were also treated with 30 μM lovastatin (Lova) in the presence or absence of 5 mM M, as described in Section “Materials and Methods.” Values are shown as means and vertical bars represent SEM. The data were analyzed by two-way ANOVA, followed by Bonferroni post hoc test. ***P < 0.001, **P < 0.01, and *P < 0.05 in comparison with control or bare-linked specific control. Ns: not significant. (B) Effect of δ-TT on hydroxymethylglutaryl coenzyme A reductase (HMGR) activity in MCF-7, T47D, and MDA-MB-231 cells. […] Data shown are the mean values ± SEM from three independent experiments performed in triplicate.

ERβ = ERβ (Homo sapiens, UniProt Q92731); assay: Estrogen receptor-binding assay, competition with [3H]-17β-estradiol; parameters: expressed in transfected cells; host or cells: Cos-7; conditions: extracts of cos-7 cells expressing human ERβ; 2 nM [3H]-E2; tocols 1 μM to 1 mM; N.M. = not measurable
ERβ, sequence (Q92731 whole entry): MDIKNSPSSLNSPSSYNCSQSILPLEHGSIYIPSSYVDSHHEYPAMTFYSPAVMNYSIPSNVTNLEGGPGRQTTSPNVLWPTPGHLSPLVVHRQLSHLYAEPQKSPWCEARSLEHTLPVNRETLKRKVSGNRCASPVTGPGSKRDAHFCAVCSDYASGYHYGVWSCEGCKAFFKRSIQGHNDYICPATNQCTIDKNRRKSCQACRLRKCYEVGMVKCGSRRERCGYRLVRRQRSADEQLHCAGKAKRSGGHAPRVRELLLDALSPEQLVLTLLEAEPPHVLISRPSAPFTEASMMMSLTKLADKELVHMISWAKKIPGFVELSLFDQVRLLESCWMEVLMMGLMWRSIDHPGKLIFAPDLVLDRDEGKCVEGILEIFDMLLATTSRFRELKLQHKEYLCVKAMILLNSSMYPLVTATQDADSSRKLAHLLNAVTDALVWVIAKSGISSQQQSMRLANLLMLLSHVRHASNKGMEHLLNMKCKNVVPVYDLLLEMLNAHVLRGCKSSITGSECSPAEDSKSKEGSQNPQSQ

ERα = target: T1, ERα (Homo sapiens, UniProt P03372); assay: as above; parameters: expressed in transfected cells; host or cells: Cos-7; conditions: extracts of cos-7 cells expressing human ERα; 2 nM [3H]-E2; tocols 1 μM to 1 mM; N.M. = not measurable
T1 sequence (P03372 1-595): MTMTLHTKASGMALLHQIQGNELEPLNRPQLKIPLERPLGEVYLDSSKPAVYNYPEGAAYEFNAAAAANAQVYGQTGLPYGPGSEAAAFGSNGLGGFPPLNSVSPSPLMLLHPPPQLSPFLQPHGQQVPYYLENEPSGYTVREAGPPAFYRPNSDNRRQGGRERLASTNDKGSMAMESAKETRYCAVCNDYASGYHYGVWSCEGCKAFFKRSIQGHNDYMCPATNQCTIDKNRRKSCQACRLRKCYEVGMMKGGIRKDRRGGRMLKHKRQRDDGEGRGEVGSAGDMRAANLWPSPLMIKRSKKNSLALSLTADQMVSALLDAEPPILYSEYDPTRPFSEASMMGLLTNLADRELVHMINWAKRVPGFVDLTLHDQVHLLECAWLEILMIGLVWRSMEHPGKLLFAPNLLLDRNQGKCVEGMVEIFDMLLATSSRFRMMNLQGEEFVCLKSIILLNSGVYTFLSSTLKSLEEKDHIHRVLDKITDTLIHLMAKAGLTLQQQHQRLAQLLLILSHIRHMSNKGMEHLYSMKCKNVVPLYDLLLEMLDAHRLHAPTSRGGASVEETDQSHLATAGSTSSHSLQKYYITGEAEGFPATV

[2] = 500 μM δ-TP or δ-TT, 30 μM lovastatin, 6-day period

IC50 (ERβ) | IC50 (ERα) | Compound | stimulation of luciferase expression (ER-dependent transcription) [1] | also measured
– | – | Cc1cc(C(C)(C)C)c(O)c(C(C)(C)C)c1 [BHT, butylated hydroxytoluene, reference compound] | did not stimulate the expression of luciferase | –
– | – | CCCCN(C)C(=O)CCCCCCCCCCC1Cc2cc(O)ccc2C2CC[C@@]3(C)C(CC[C@@H]3O)C12 (stereo partly shown) [ICI 164,384, reference compound] | – | blockade of tocol-induced ER-dependent transcriptional activity ([1]; 1 μM ICI 164,384 with 500 μM δ-TP or δ-TT): blocked; blockade of δ-TP- and E2-induced stimulation of T47D proliferation (T47D (ER(+)) cells; 1 μM ICI 164,384): blocked; blockade of δ-TP- and E2-induced stimulation of MCF-7 proliferation (MCF-7 (ER(+)) cells; 1 μM ICI 164,384): blocked
– | – | CC(C)(Sc1cc(C(C)(C)C)c(O)c(C(C)(C)C)c1)Sc1cc(C(C)(C)C)c(O)c(C(C)(C)C)c1 [Probucol, probucol, reference compound] | did not stimulate the expression of luciferase | –
– | – | CC[C@H](C)C(=O)O[C@H]1C[C@@H](C)C=C2C=C[C@H](C)[C@H](CC[C@@H]3C[C@@H](O)CC(=O)O3)[C@H]21 [lovastatin, reference compound] | – | effect on MDA-MB-231 cell proliferation (MDA-MB-231 (ER(−)) cells): inhibition of cell proliferation; effect on T47D cell proliferation (T47D (ER(+)) cells; [2]): inhibition of cell proliferation; effect on MCF-7 cell proliferation (MCF-7 (ER(+)) cells; [2]): inhibition of cell proliferation
431 ± 21 µM | 453 ± 30 µM | Cc1c(C)c2c(c(C)c1O)CC[C@@](C)(CCC[C@H](C)CCC[C@H](C)CCCC(C)C)O2 [α-TP, α-tocopherol] | – | –
388 ± 32 µM | 412 ± 22 µM | CC(C)=CCC/C(C)=C/CC/C(C)=C/CC[C@]1(C)CCc2c(C)c(O)c(C)c(C)c2O1 [α-TT, α-tocotrienol] | – | –
215 ± 16 µM | 227 ± 28 µM | Cc1c(O)cc2c(c1C)O[C@](C)(CCC[C@H](C)CCC[C@H](C)CCCC(C)C)CC2 [γ-TP, γ-tocopherol] | – | –
– | – | CC1=CC(=O)C=C(CC[C@](C)(O)CCC[C@H](C)CCC[C@H](C)CCCC(C)C)C1=O [δ-TPQuin, δ-tocopherylquinone] | did not stimulate the expression of luciferase | ERβ (IC50) (ERβ): did not bind and N.M.; ERα (IC50) (ERα): did not bind and N.M.

Compound | IC50 (ERβ) | IC50 (ERα) | stimulation of luciferase expression (ER-dependent transcription) [1] | also measured
CC(C)=CCC/C(C)=C/CC/C(C)=C/CC[C@]1(C)CCc2cc(O)c(C)c(C)c2O1 [γ-TT, γ-tocotrienol] | 205 ± 18 µM | 203 ± 25 µM | – | –
